Reference: PMC8288134, “Synthesis, potential antitumor activity, cell cycle analysis, and multitarget mechanisms of novel hydrazones incorporating a 4-methylsulfonylbenzene scaffold: a molecular docking study” (Journal of Enzyme Inhibition and Medicinal Chemistry, 2021)
Like-named read-outs stand apart in the source and are kept apart here.

Key:
[1] = system: K-562; assay: NCI antitumor screen (SRB); assay type: cell-based; settings: Homo sapiens
[2] = system: SR; assay: NCI antitumor screen (SRB); assay type: cell-based; settings: Homo sapiens; for inhibition at 10 µM: one dose 10 µM, read-out: Growth inhibition percentage (GI%)
[3] = system: A549/ATCC; assay: NCI antitumor screen (SRB); assay type: cell-based; settings: Homo sapiens; for inhibition at 10 µM: one dose 10 µM, read-out: Growth inhibition percentage (GI%)
[4] = system: NCI-H460; assay: NCI antitumor screen (SRB); assay type: cell-based; settings: Homo sapiens; for inhibition at 10 µM: one dose 10 µM, read-out: Growth inhibition percentage (GI%)
[5] = system: COLO 205; assay: NCI antitumor screen (SRB); assay type: cell-based; settings: Homo sapiens; for inhibition at 10 µM: one dose 10 µM, read-out: Growth inhibition percentage (GI%)
[6] = system: HCC-2998; assay: NCI antitumor screen (SRB); assay type: cell-based; settings: Homo sapiens; for inhibition at 10 µM: one dose 10 µM, read-out: Growth inhibition percentage (GI%)
[7] = system: SF-295; assay: NCI antitumor screen (SRB); assay type: cell-based; settings: Homo sapiens; for inhibition at 10 µM: one dose 10 µM, read-out: Growth inhibition percentage (GI%)
[8] = system: MALME-3M; assay: NCI antitumor screen (SRB); assay type: cell-based; settings: Homo sapiens; for inhibition at 10 µM: one dose 10 µM, read-out: Growth inhibition percentage (GI%)
[9] = system: MDA-MB-435; assay: NCI antitumor screen (SRB); assay type: cell-based; settings: Homo sapiens; for inhibition at 10 µM: one dose 10 µM, read-out: Growth inhibition percentage (GI%)
[10] = system: SK-MEL-2; assay: NCI antitumor screen (SRB); assay type: cell-based; settings: Homo sapiens
[11] = system: SK-MEL-5; assay: NCI antitumor screen (SRB); assay type: cell-based, human; settings: for inhibition at 10 µM: read-out: Growth inhibition percentage (GI%)
[12] = system: UACC-62; assay: NCI antitumor screen (SRB); assay type: cell-based; settings: Homo sapiens; for inhibition at 10 µM: one dose 10 µM, read-out: Growth inhibition percentage (GI%)
[13] = system: IGROV1; assay: NCI antitumor screen (SRB); assay type: cell-based; settings: Homo sapiens; for inhibition at 10 µM: IGROV-1, one dose 10 µM, read-out: Growth inhibition percentage (GI%)
[14] = system: RXF 393; assay: NCI antitumor screen (SRB); assay type: cell-based; settings: Homo sapiens; for inhibition at 10 µM: one dose 10 µM, read-out: Growth inhibition percentage (GI%)
[15] = system: BT-549; assay: NCI antitumor screen (SRB); assay type: cell-based; settings: Homo sapiens; for inhibition at 10 µM: one dose 10 µM, read-out: Growth inhibition percentage (GI%)
[16] = target: EGFR (Homo sapiens, UniProt P00533); assay: biochemical; settings: read-out: IC50 EGFR Inhibition
Description: (§1) In vitro luminescent EGFR tyrosine kinase assay using Kinase-Glo® MAX as a detection reagent, and In vitro HER2 tyrosine kinase assay using DP‐Glo™ reagent that measures ADP formed from a kinase reaction, this luminescent signal positively correlates with ADP amount and kinase activity. […]
(§2) 2.1.5. EGFR and Her2 assays
(§3) In vitro luminescent EGFR tyrosine kinase assay, using Kinase-Glo® MAX as a detection reagent, and In vitro HER2 tyrosine kinase assay, using DP‐Glo™ reagent that measures the adenosine diphosphate (ADP) formed from a kinase reaction, were performed; this luminescent signal positively correlates with ADP amount and kinase activity. In 17 μl of distilled water, 6 μl of Kinase assay buffer and 1 μl ATP and 1 μl PTK substrate were mixed (master mixture). In every well, mix 20 μl of the master mixture and 5 μl of Inhibitor solution (Test Inhibitor) for positive control, and use 5 μl of the same solution without inhibitor (Inhibitor buffer) as the blank solution; add 20 μl of diluted EGFR or Her2 enzyme and incubate at 30°C for 40 min. Add 50 μl of Kinase-Glo Max reagent to each well, cover the plate with aluminum foil and incubate the plate at room temperature for 15 min. Afterward, measure luminescence using the microplate reader. “Blank” value is subtracted from all readings. […]

[17] = target: HER2 (Homo sapiens, UniProt P04626); assay: biochemical; settings: read-out: IC50 HER2 Inhibition
Description: as §1, §2, §3

[18] = system: A549/ATCC; design: method as in https://dtp.cancer.gov/dtpstandard/dwindex/index.jsp; settings: reference drugs, ref https://dtp.cancer.gov/dtpstandard/dwindex/index.jsp; cited from earlier work
[19] = system: NCI-H226; design: method as in https://dtp.cancer.gov/dtpstandard/dwindex/index.jsp; settings: reference drugs, ref https://dtp.cancer.gov/dtpstandard/dwindex/index.jsp; cited from earlier work
[20] = system: NCI-H522; design: method as in https://dtp.cancer.gov/dtpstandard/dwindex/index.jsp; settings: reference drugs, ref https://dtp.cancer.gov/dtpstandard/dwindex/index.jsp; cited from earlier work
[21] = system: HCC-2998; design: method as in https://dtp.cancer.gov/dtpstandard/dwindex/index.jsp; settings: reference drugs, ref https://dtp.cancer.gov/dtpstandard/dwindex/index.jsp; cited from earlier work
[22] = system: HCT-116; design: method as in https://dtp.cancer.gov/dtpstandard/dwindex/index.jsp; settings: reference drugs, ref https://dtp.cancer.gov/dtpstandard/dwindex/index.jsp; cited from earlier work
[23] = system: SW-620; design: method as in https://dtp.cancer.gov/dtpstandard/dwindex/index.jsp; settings: reference drugs, ref https://dtp.cancer.gov/dtpstandard/dwindex/index.jsp; cited from earlier work
[24] = system: SF-268; design: method as in https://dtp.cancer.gov/dtpstandard/dwindex/index.jsp; settings: reference drugs, ref https://dtp.cancer.gov/dtpstandard/dwindex/index.jsp; cited from earlier work
[25] = system: SF-539; design: method as in https://dtp.cancer.gov/dtpstandard/dwindex/index.jsp; settings: reference drugs, ref https://dtp.cancer.gov/dtpstandard/dwindex/index.jsp; cited from earlier work
[26] = system: SNB-19; design: method as in https://dtp.cancer.gov/dtpstandard/dwindex/index.jsp; settings: reference drugs, ref https://dtp.cancer.gov/dtpstandard/dwindex/index.jsp; cited from earlier work
[27] = system: SNB-75; design: method as in https://dtp.cancer.gov/dtpstandard/dwindex/index.jsp; settings: reference drugs, ref https://dtp.cancer.gov/dtpstandard/dwindex/index.jsp; cited from earlier work
[28] = system: MALME-3M; design: method as in https://dtp.cancer.gov/dtpstandard/dwindex/index.jsp; settings: reference drugs, ref https://dtp.cancer.gov/dtpstandard/dwindex/index.jsp; cited from earlier work
[29] = system: MDA-MB-435; design: method as in https://dtp.cancer.gov/dtpstandard/dwindex/index.jsp; settings: reference drugs, ref https://dtp.cancer.gov/dtpstandard/dwindex/index.jsp; cited from earlier work
[30] = system: NCI/ADR-RES; design: method as in https://dtp.cancer.gov/dtpstandard/dwindex/index.jsp; settings: reference drugs, ref https://dtp.cancer.gov/dtpstandard/dwindex/index.jsp; cited from earlier work
[31] = system: UO-31; design: method as in https://dtp.cancer.gov/dtpstandard/dwindex/index.jsp; settings: reference drugs, ref https://dtp.cancer.gov/dtpstandard/dwindex/index.jsp; cited from earlier work
[32] = system: DU-145; design: method as in https://dtp.cancer.gov/dtpstandard/dwindex/index.jsp; settings: reference drugs, ref https://dtp.cancer.gov/dtpstandard/dwindex/index.jsp; cited from earlier work
[33] = system: HS 578 T; design: method as in https://dtp.cancer.gov/dtpstandard/dwindex/index.jsp; settings: reference drugs, ref https://dtp.cancer.gov/dtpstandard/dwindex/index.jsp; cited from earlier work
[34] = system: T-47D; design: method as in https://dtp.cancer.gov/dtpstandard/dwindex/index.jsp; settings: reference drugs, ref https://dtp.cancer.gov/dtpstandard/dwindex/index.jsp; cited from earlier work
[35] = system: SK-MEL-5; design: method as in https://dtp.cancer.gov/dtpstandard/dwindex/index.jsp; settings: reference drugs, ref https://dtp.cancer.gov/dtpstandard/dwindex/index.jsp; cited from earlier work
[36] = five concentrations 0.01-100 µM

HER2, sequence (P04626 23-1255): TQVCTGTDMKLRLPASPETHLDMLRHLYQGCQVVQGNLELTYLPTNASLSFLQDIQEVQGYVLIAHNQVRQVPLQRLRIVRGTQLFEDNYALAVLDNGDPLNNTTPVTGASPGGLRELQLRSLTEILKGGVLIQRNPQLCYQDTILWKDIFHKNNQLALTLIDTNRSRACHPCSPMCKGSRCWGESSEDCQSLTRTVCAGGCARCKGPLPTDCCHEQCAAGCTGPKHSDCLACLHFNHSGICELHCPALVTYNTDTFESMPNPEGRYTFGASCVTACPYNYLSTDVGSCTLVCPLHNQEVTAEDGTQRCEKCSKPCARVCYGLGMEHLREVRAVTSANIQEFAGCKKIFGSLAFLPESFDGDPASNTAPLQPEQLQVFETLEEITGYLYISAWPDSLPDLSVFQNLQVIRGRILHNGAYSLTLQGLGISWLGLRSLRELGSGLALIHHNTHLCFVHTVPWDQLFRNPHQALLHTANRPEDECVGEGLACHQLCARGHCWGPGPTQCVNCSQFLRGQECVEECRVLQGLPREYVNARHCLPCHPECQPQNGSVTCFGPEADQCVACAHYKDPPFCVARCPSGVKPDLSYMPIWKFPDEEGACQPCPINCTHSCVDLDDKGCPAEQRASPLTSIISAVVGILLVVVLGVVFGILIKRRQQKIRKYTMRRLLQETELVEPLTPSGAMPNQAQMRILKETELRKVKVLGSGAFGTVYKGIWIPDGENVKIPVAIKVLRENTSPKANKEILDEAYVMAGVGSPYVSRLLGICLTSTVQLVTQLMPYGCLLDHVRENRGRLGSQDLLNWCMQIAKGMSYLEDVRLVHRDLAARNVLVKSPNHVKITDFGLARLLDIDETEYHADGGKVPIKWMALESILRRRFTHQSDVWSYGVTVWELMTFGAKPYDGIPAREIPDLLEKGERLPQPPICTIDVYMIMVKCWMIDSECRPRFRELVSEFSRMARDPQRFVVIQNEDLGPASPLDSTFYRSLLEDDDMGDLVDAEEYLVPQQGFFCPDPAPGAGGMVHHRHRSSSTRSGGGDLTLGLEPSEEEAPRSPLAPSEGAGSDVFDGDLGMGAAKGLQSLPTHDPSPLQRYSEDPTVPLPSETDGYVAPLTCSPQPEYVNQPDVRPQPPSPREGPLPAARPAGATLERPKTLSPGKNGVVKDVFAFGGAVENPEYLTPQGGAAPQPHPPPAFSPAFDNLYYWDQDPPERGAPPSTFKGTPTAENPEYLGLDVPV
EGFR, sequence (P00533 25-1210): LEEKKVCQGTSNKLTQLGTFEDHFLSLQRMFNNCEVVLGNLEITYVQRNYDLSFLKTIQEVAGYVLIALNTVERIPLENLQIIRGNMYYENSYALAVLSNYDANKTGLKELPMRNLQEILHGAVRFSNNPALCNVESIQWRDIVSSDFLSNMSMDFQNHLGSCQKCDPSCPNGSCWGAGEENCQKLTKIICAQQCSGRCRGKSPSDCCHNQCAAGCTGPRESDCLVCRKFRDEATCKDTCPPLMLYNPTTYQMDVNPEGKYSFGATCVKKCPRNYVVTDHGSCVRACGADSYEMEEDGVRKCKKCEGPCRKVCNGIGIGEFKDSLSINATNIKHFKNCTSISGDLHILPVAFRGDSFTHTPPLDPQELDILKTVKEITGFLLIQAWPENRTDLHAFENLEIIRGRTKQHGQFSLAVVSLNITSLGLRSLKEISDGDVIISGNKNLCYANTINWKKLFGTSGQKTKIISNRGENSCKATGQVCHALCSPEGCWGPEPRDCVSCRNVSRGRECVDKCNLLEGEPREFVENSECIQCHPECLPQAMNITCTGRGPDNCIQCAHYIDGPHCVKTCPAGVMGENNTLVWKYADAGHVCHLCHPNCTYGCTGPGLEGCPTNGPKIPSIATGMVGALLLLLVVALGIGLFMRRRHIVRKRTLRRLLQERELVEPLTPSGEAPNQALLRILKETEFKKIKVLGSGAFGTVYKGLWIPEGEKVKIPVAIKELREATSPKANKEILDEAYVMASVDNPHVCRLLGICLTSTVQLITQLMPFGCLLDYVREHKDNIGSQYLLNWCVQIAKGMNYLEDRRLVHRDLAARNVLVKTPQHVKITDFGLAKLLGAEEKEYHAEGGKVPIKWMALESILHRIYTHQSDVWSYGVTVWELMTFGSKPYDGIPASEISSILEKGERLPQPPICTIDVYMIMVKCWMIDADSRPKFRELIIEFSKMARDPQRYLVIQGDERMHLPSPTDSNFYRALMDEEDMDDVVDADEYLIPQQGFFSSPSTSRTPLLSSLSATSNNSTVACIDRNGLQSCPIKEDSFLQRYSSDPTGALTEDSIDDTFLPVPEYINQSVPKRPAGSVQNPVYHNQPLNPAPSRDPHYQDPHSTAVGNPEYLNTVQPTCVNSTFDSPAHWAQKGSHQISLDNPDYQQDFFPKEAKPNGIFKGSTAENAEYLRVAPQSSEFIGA

## CS(=O)(=O)c1ccc(C(=O)N/N=C/c2ccccc2O)cc1 [Compound 16]
[1]; K562, read-out: Growth inhibition percentage (GI%)
  inhibition at 10 µM: 59.5%
[2]
  inhibition at 10 µM: 79.6%
[3]
  inhibition at 10 µM: 61.2%
[4]
  inhibition at 10 µM: 85.9%
[5]
  inhibition at 10 µM: 68.8%
[6]
  inhibition at 10 µM: 52.7%
[7]
  inhibition at 10 µM: 62%
[8]
  inhibition at 10 µM: 36.5%
[9]
  inhibition at 10 µM: 40.3%
[10]; SK-MEL-2, read-out: Growth inhibition percentage (GI%)
  inhibition at 10 µM: 60%
[11]; Homo sapiens, SK-MEL-5, one dose 10 µM
  inhibition at 10 µM: 67.8%
[12]
  inhibition at 10 µM: 83.6%
[13]
  inhibition at 10 µM: 59%
[14]
  inhibition at 10 µM: 47%
[15]
  inhibition at 10 µM: 47%
[16]
  IC50: 0.2 ± 0.07 µM
[17]
  IC50: 0.13 ± 0.04 µM

## CCN(CC)c1ccc(/C=N/NC(=O)c2ccc(S(C)(=O)=O)cc2)c(O)c1 [Compound 20]
[1]; K562, K-562, five concentrations 0.01-100 µM
  GI50: 0.604 µM
[1]; K562, K-562, one dose 10 µM, read-out: Growth inhibition percentage (GI%)
  inhibition at 10 µM: 87.6%
[2]; [36]
  GI50: 0.063 µM
[2]
  inhibition at 10 µM: 91%
[3]; [36]
  GI50: 0.402 µM
[3]
  inhibition at 10 µM: 87.5%
[4]; [36]
  GI50: 0.113 µM
[4]
  inhibition at 10 µM: 96.7%
[5]; [36]
  GI50: 0.269 µM
[5]
  inhibition at 10 µM: 91.4%
[6]; [36]
  GI50: 0.301 µM
[6]
  inhibition at 10 µM: 60.4%
[7]; [36]
  GI50: 0.2 µM
[7]
  inhibition at 10 µM: 78.6%
[8]; [36]
  GI50: 0.44 µM
[8]
  inhibition at 10 µM: 86%
[9]; [36]
  GI50: 0.623 µM
[9]
  inhibition at 10 µM: 62.8%
[10]; SK-MEL-2, five concentrations 0.01-100 µM
  GI50: 0.307 µM
[10]; SK-MEL-2, one dose 10 µM, read-out: Growth inhibition percentage (GI%)
  inhibition at 10 µM: 80.5%
[11]; Homo sapiens, SK-MEL-5, SK-MEL-5, one dose 10 µM
  inhibition at 10 µM: 100%
[11]; Homo sapiens, SK-MEL-5, five concentrations 0.01-100 µM
  GI50: 0.223 µM
[11]; SK-MEL-5, one dose 10 µM
  Growth inhibition percentage (GI%): >100%
[12]; [36]
  GI50: 0.234 µM
[12]
  inhibition at 10 µM: > 100%
[13]; IGROV-1, five concentrations 0.01-100 µM
  GI50: 0.196 µM
[13]
  inhibition at 10 µM: 78.8%
[14]; [36]
  GI50: 0.271 µM
[14]
  inhibition at 10 µM: 71.5%
[15]; [36]
  GI50: 0.346 µM
[15]
  inhibition at 10 µM: 69.3%
[16]
  IC50: 0.19 ± 0.01 µM
[17]
  IC50: 0.07 ± 0.02 µM

## C#Cc1cccc(Nc2ncnc3cc(OCCOC)c(OCCOC)cc23)c1 [Erlotinib, erlotinib]
[18]
  GI50: 10 µM
[19]
  GI50: 39.8 µM
[20]
  GI50: 1 µM
[21]
  GI50: 79.4 µM
[22]
  GI50: 6.31 µM
[23]
  GI50: 79.4 µM
[24]
  GI50: 15.8 µM
[25]
  GI50: 19.9 µM
[26]
  GI50: 12.6 µM
[27]
  GI50: 12.6 µM
[28]
  GI50: 1.58 µM
[29]
  GI50: 19.9 µM
[30]
  GI50: 7.94 µM
[31]
  GI50: 1 µM
[32]
  GI50: 1.99 µM
[33]
  GI50: 6.31 µM
[34]
  GI50: 3.98 µM

## COc1cc2ncnc(Nc3ccc(F)c(Cl)c3)c2cc1OCCCN1CCOCC1 [Gefitinib, gefitinib]
[18]
  GI50: 2.51 µM
[19]
  GI50: 3.98 µM
[20]
  GI50: 1 µM
[21]
  GI50: 2.51 µM
[22]
  GI50: 3.16 µM
[24]
  GI50: 2.51 µM
[25]
  GI50: 10 µM
[26]
  GI50: 3.16 µM
[28]
  GI50: 3.98 µM
[29]
  GI50: 3.16 µM
[35]
  GI50: 3.16 µM
[30]
  GI50: 1.26 µM
[31]
  GI50: 1.58 µM
[32]
  GI50: 1.58 µM
[33]
  GI50: 7.94 µM
[34]
  GI50: 7.94 µM

## CNC(=O)c1cc(Oc2ccc(NC(=O)Nc3ccc(Cl)c(C(F)(F)F)c3)cc2)ccn1 [Sorafenib, sorafenib]
[18]
  GI50: 3.16 µM
[19]
  GI50: 1.99 µM
[20]
  GI50: 1.99 µM
[21]
  GI50: 3.16 µM
[23]
  GI50: 2.51 µM
[24]
  GI50: 2.51 µM
[26]
  GI50: 3.16 µM
[27]
  GI50: 3.16 µM
[28]
  GI50: 1.99 µM
[30]
  GI50: 2.51 µM
[31]
  GI50: 2.51 µM
[32]
  GI50: 3.16 µM
